Test results taken from patent US5464848A, “1,2,4-oxadiazolyl-phenoxyalkylisoxazoles and their use as antiviral agents” (Sterling Winthrop Inc., priority 1993, dated 1995).
In brackets after ≈: the same amount, converted by molar mass.

Legend:
[1] = system: human rhinovirus serotypes, panel B; assay: MIC50/MIC80 over panel B of 10 human rhinovirus serotypes (HeLa cell CPE); assay type: cell-based; settings: for MIC80: minimum concentration required to inhibit 80% of the tested serotypes
Description: (§1) They are useful in inhibiting virus replication in vitro and are primarily active against picornaviruses, including enteroviruses, echovirus and coxsackie virus, especially rhinoviruses. […] The test procedure used was as follows: The MIC values were determined by an automated tissue culture infectious dose 50% (TCID-50) assay. HeLa cells in monoloyers in 96-well cluster plates were infected with a dilution of virus which had been shown empirically to produce 80% to 100% cytopathic effect (CPE) in 3 days in the absence of drug. The compound to be tested was serially diluted through 10, 2-fold cycles and added to the infected cells. After a 3 day incubation at 33° C. and 2.5% carbon dioxide, the cells were fixed with a 5% solution of glutaraldehyde followed by staining with a 0.25% solution of crystal violet in water. The plates were then rinsed, dried, and the amount of stain remaining in the well (a measure of intact cells) was quantitated with an optical density reader. The MIC was determined to be the concentration of compound which protected 50% of the cells from virus-induced CPE relative to an untreated virus control.
(§2) In the above test procedures, representative compounds of formula I were tested against some the serotypes from either a panel of fifteen human rhinovirus (HRV) serotypes, (noted in the table as panel T) namely, HRV-2, -14, -1A, -1B, -6, -21, -22, -15, -25, -30, -50, -67, -89, -86 and -41 or against some of the serotypes from a panel of 10 human rhinovirus serotypes namely HRV-3, -4, -5, -9, -16, -18, -38, -66, -75 and -61, (noted in the table as panel B) and the MIC value, expressed in micrograms per milliliter ([…]), for each rhinovirus serotype was determined for each virus, example 1e is given as an example of the data. Then MIC50 and MIC80 values, which are the minimum concentrations of the compound required to inhibit 50% and 80%, respectively, of the tested serotypes were determined.
(§3) The following Table gives the test results for representative compounds of the invention. The panel of viruses used in the test appears before the MIC80 and MIC50 figure and the number of serotypes which the compound is tested against (N) is indicated after the MIC80 and MIC50 figure.

[2] = system: human rhinovirus (HRV) serotypes, panel T; assay: MIC50/MIC80 over panel T of fifteen human rhinovirus serotypes (HeLa cell CPE); assay type: cell-based; settings: for MIC50: Human rhinovirus sp., 72 h, minimum concentration required to inhibit 50% of the tested serotypes; for MIC80: minimum concentration required to inhibit 80% of the tested serotypes
Description: as §1, §2, §3

Row | Compound | MIC50 ([1]; panel B, minimum concentration required to inhibit 50% of the tested serotypes) [µg/mL] | MIC80 ([1]; panel B) [µg/mL] | MIC50 [2] [µg/mL] | MIC80 [2] [µg/mL] | MIC50 ([1]; Human rhinovirus sp., 72 h) [µg/mL]
1 | 5-{3-[2,6-Dimethyl-4-(5-difluoromethyl-1,2,4-oxadiazol-3-yl)phenoxy]-propyl}-3-methylisoxazole [Example 49g] | 99 | 49.859 |  |  | 
2 | CCOc1cc(CCCOc2c(C)cc(-c3noc(C4CC4)n3)cc2C)on1 [Example 37, 5-{3-[4-(5-Cyclopropyl-1,2,4-oxadiazol-3-yl)-2,6-dimethyl-phenoxy]propyl}-3-ethoxyisoxazole] |  |  | 0.352 (≈ 0.918 µM) | 0.91 (≈ 2.37 µM) | 
3 | Cc1cc(CCCOc2c(C)cc(-c3noc(C(N)=O)n3)cc2C)on1 [Example 38, 5-{3-[4-(5-Aminocarbonyl-1,2,4-oxadiazol-3-yl)-2,6-dimethyl-phenoxy]propyl}-3-methylisoxazole] |  |  | 99 (≈ 278 µM) | 0.839 (≈ 2.35 µM) | 
4 | Cc1cc(CCCOc2c(C)cc(-c3noc(C#N)n3)cc2C)on1 [Example 39, 5-{3-[4-(5-Cyano-1,2,4-oxadiazol-3-yl)-2,6-dimethylphenoxy]-propyl}-3-methylisoxazole] |  |  | 99 (≈ 293 µM) | 1.848 (≈ 5.46 µM) | 
5 | Cc1cc(-c2noc(C3CC3)n2)cc(C)c1OCCCc1cc(CO)no1 [Example 39c, 5-{3-[4-(5-Cyclopropyl-1,2,4-oxadiazol-3-yl)-2,6-dimethylphenoxy]propyl}-3-(hydroxymethyl) isoxazole] |  |  | 0.187 (≈ 0.506 µM) | 0.035 (≈ 0.0947 µM) | 
6 | Cc1cc(CCCOc2c(C)cc(-c3noc(CI)n3)cc2C)on1 [Example 41, 5-{3-[2,6-Dimethyl-4-(5-(iodomethyl)-1,2,4-oxadiazol-3-yl) -phenoxy]propyl}-3-methylisoxazole] |  |  | 99 (≈ 218 µM) | 99 (≈ 218 µM) | 
7 | Cc1ccc(S(=O)(=O)OCc2nc(-c3cc(C)c(OCCCc4cc(C)no4)c(C)c3)no2)cc1 [Example 42, 5-{3-[2,6-Dimethyl-4-(5-(4-methylphenylsulfonyloxymethyl) -1,2,4-oxadiazol-3-yl)phenoxy]propyl}-3-methylisoxazole] |  |  | 99 (≈ 199 µM) | 99 (≈ 199 µM) | 
8 | Cc1cc(CCCOc2c(C)cc(-c3noc(CC(F)(F)F)n3)cc2C)on1 [Example 43, 5-{3-[2,6-Dimethyl-4-(5-(2,2,2-trifluoroethyl)-1,2,4-oxadiazol-3-yl)phenoxy]propyl}-3-methylisoxazole] |  |  | 99 (≈ 250 µM) | 99 (≈ 250 µM) | 
9 | Cc1cc(-c2noc(C3CC3)n2)cc(C)c1OCCCc1cc(OCCO)no1 [Example 44, 5-{3-[4-(5-Cyclopropyl-1,2,4-oxadiazol-3-yl)-2,6-dimethylphenoxy]propyl}-3-(2-hydroxyethoxy)isoxazole] |  |  |  | 0.385 (≈ 0.964 µM) | 
10 | Cc1cc(CCCOc2c(C)cc(-c3nc(C4CC4)no3)cc2C)on1 [Example 45l, 5-{3-[2,6-Dimethyl-4,(5-cyclopropyl-1,2,4-oxadiazol-3-yl)phenoxy]propyl}-3-methylisoxazole] |  |  | 0.558 (≈ 1.58 µM) | 0.153 (≈ 0.433 µM) | 
11 | Cc1cc(CCCOc2c(C)cc(-c3nc(C(F)(F)F)no3)cc2C)on1 [Example 46c] |  |  | 0.197 (≈ 0.517 µM) | 0.1 (≈ 0.262 µM) | 
12 | Cc1cc(CCCOc2c(C)cc(-c3nc(N)no3)cc2C)on1 [Example 47] |  |  | 5.14 (≈ 15.7 µM) | 0.057 (≈ 0.174 µM) | 
13 | Cc1cc(CCCOc2c(C)cc(-c3noc(C(F)F)n3)cc2Cl)on1 [Example 49d, 5-{3-[2,-Methyl-6-Chloro-4-(5-difluoromethyl-1,2,4-oxadiazol-3-yl)phenoxy]-propyl}-3-methylisoxazole] |  |  | 99 (≈ 258 µM) | 99 (≈ 258 µM) | 
14 | Cc1cc(CCCOc2c(C)cc(-c3noc(C(F)(F)Cl)n3)cc2C)on1 [Example 54a, 5-{3-[2,6-Dimethyl-4-(5-difluorochloromehyl-1,2,4-oxadiazol-3-yl)phenoxy]-propyl}-3-methylisoxazole] |  | 0.016 (≈ 0.0402 µM) |  |  | 49.6 (≈ 125 µM)
15 | Cc1cc(CCCOc2ccc(-c3noc(C4CCC4)n3)cc2)on1 [Example 54e, 5-{3-[4-(5-cyclobutyl-1,2,4-oxadiazol-3-yl)phenoxy]propyl}-3-methylisoxazole] |  |  | 99 (≈ 292 µM) | 0.1045 (≈ 0.308 µM) | 
16 | CCOC(=O)c1cc(CCCOc2c(C)cc(-c3noc(C(F)(F)F)n3)cc2C)on1 [Example 56d, 5-{3-[2,6-Dimethyl-4-(5-trifluoromethyl-1,2,4-oxadiazol-3-yl)phenoxy]propyl}-3-(ethoxycarbonyl)isoxazole] |  |  | 1.47 (≈ 3.33 µM) | 0.634 (≈ 1.44 µM) | 
17 | Cc1cc(-c2noc(C(F)(F)F)n2)cc(C)c1OCCCc1cc(C(=O)O)no1 [Example 56e] |  |  | 99 (≈ 241 µM) | 5.304 (≈ 12.9 µM) | 
18 | Cc1cc(-c2noc(C(F)(F)F)n2)cc(C)c1OCCCc1onc(C)c1Br [Example 57] |  | 99 (≈ 215 µM) |  |  | 99 (≈ 215 µM)
19 | CSc1nc(-c2cc(C)c(OCCCc3cc(C)no3)c(C)c2)no1 [Example 58d, 5-{3-[2,6-dimethyl-4-(5-methylthio-1,2,4-oxadiazol-3-yl)phenoxy]-propyl}-3-methylisoxazole] |  |  | 99 (≈ 275 µM) | 99 (≈ 275 µM) | 
20 | Cc1cc(CCCOc2c(F)cc(-c3noc(C(F)(F)F)n3)cc2I)on1 [Example 60e, 5-{3-[2-Fluoro-6-iodo-4-(5-trifluoromethyl-1,2,4-oxadiazol-3-yl)phenoxy]propyl}-3-methylisoxazole] |  | 0.4145 (≈ 0.834 µM) |  |  | 99 (≈ 199 µM)
21 | Cc1cc(CCCOc2c(C)cc(-c3noc(C(F)(F)F)n3)cc2F)on1 [Example 60h, 5-{3-[2-Fluoro-6-methyl-4-(5-trifluoromethyl-1,2,4-oxadiazol-3-yl)phenoxy]propyl}-3-methylisoxazole] |  | 0.0315 (≈ 0.0818 µM) |  |  | 0.328 (≈ 0.851 µM)
22 | Cc1cc(CCCOc2c(Cl)cc(-c3noc(C(F)(F)F)n3)cc2C#N)on1 [Example 61e, 5-{3-[4-(5-Trifluoromethyl-1,2,4-oxadiazol-3-yl)2-cyano-6-chlorophenoxy]-propyl}-3-methylisoxazole] |  |  | 0.706 (≈ 1.71 µM) | 0.3355 (≈ 0.813 µM) | 
23 | Cc1cc(CCCOc2c(C)cc(-c3noc(C(F)(F)F)n3)cc2Cl)on1 [Example 63d, 5-{3-[4-(5-Trifluoromethyl-1,2,4-oxadiazol-3-yl)2-chloro-6-methylphenoxy]propyl}-3-methylisoxazole] |  | 0.13 (≈ 0.324 µM) |  |  | 0.304 (≈ 0.757 µM)
